Source: paper PMC3020970, “K70Q Adds High-Level Tenofovir Resistance to “Q151M Complex” HIV Reverse Transcriptase through the Enhanced Discrimination Mechanism” (PLoS ONE, 2011)
Like-named read-outs stand apart in the source and are kept apart here.

Columns and labels:
Format in all cases: cell-based
HIV-1 Q151Mc/K70E = test: Single-cycle drug susceptibility assay (MAGIC-5 cells)
Procedure: (§1) The NL4-3-based molecular clone was constructed by replacing the pol-coding region with the HIV-1 BH10 strain. […] Each molecular clone was transfected into COS-7 cells. Cells were grown for 48 h, and culture supernatants were harvested and stored at −80°C until use.
(§2) Susceptibilities to various RT inhibitors were determined using the MAGIC-5 cells which are HeLa cells stably transfected with a β-galactosidase gene under the control of an HIV long terminal repeat promoter, and with vectors that express the CD4 receptor and the CCR5 co-receptor under the control of the CMV promoter as described previously. Briefly, MAGIC-5 cells were infected with diluted virus stock (100 blue forming units) in the presence of increasing concentrations of RT inhibitors, cultured for 48 h, fixed, and stained with X-Gal (5-bromo-4-chloro-3-indolyl-β-D-galacto-pyranoside). The stained cells were counted under a light microscope.

HIV-1 Q151Mc = test: as above; conditions: Human immunodeficiency virus 1, MAGIC-5
Procedure: as §1, §2

HIV-1 K70R = test: as above
Procedure: as §1, §2

HIV-1 Q151Mc/K70G = test: as above
Procedure: as §1, §2

HIV-1 Q151Mc/K70T = test: as above
Procedure: as §1, §2

HIV-1 K70E = test: as above
Procedure: as §1, §2

HIV-1 K70T = test: as above
Procedure: as §1, §2

HIV-1 Q151Mc/K70N = test: as above
Procedure: as §1, §2

HIV-1 K70N = test: as above
Procedure: as §1, §2

HIV-1 Q151Mc/K70Q = test: as above
Procedure: as §1, §2

HIV-1 K70Q = test: as above; conditions: Human immunodeficiency virus 1, MAGIC-5; K70Q
Procedure: as §1, §2

HIV-1 K70G = test: as above
Procedure: as §1, §2

HIV-1 Q151Mc/K70R = test: as above
Procedure: as §1, §2

HIV-1 NL4-3 strain (WT) = test: microbe, parasite or virus in culture
Procedure: as §2

HIV-1 WT = test: Single-cycle drug susceptibility assay (MAGIC-5 cells), recombinant WT clone; conditions: Human immunodeficiency virus 1, Table S2
Procedure: as §1, §2

[1] = system: HIV-1 clinical isolate 2 (Q151Mc + K70Q); test: Single-cycle drug susceptibility assay (MAGIC-5 cells), clinical isolate 2; conditions: Human immunodeficiency virus 1; clinical isolate 2, MAGIC-5 cells
Procedure: (§3) HIV was isolated from fresh plasma immediately after collection of clinical samples from study participants at the outpatient clinic of the AIDS Clinical Center (ACC), International Medical Center of Japan. The Institutional Review Board approved this study (IMCJ-H13-80) and a written consent was obtained from all participants.
as §2

[2] = system: HIV-1 clinical isolate 1 (Q151Mc-containing); test: Single-cycle drug susceptibility assay (MAGIC-5 cells), clinical isolate 1; conditions: Human immunodeficiency virus 1; clinical isolate 1, MAGIC-5 cells
Procedure: as §3, §2

[3] = Human immunodeficiency virus 1, NL43, WT, MAGIC-5 cells, Table S1, read-out: EC50
[4] = Human immunodeficiency virus 1, NL43, MAGIC-5

In the case of `Nc1ccn([C@@H]2CS[C@H](CO)O2)c(=O)n1` [3TC, lamivudine], the EC50 (HIV-1 Q151Mc/K70E; Human immunodeficiency virus 1, MAGIC-5, Q151Mc/K70E) is reported as 11 ± 1.4 µM, the “Fold increase in EC50 compared to HIV-1 Q151Mc” value (“Fold increase … to HIV-1 Q151Mc” for short) (HIV-1 Q151Mc/K70E; Q151Mc/K70E vs Q151Mc) is reported as “(0.4) fold” and the EC50 (HIV-1 Q151Mc) is reported as 29 ± 3.2 µM. The EC50 (HIV-1 K70R; Human immunodeficiency virus 1, MAGIC-5, K70R) was 2.5 ± 0.46 µM, the “Fold increase in EC50 compared to HIV-1 WT” value (from here on “Fold increase … to HIV-1 WT”) (HIV-1 K70R; K70R vs WT) was “(1.8) fold” and the EC50 (HIV-1 Q151Mc/K70G; Human immunodeficiency virus 1, MAGIC-5, Q151Mc/K70G) was 46 ± 2.5 µM. For the same compound, the “Fold increase … to HIV-1 Q151Mc” value (HIV-1 Q151Mc/K70G; Q151Mc/K70G vs Q151Mc) was “(1.6) fold”, the EC50 (HIV-1 Q151Mc/K70T; Human immunodeficiency virus 1, MAGIC-5, Q151Mc/K70T) was 12 ± 2.5 µM and the “Fold increase … to HIV-1 Q151Mc” value (HIV-1 Q151Mc/K70T; Q151Mc/K70T vs Q151Mc) was “(0.4) fold”. The EC50 (HIV-1 K70E; Human immunodeficiency virus 1, MAGIC-5, K70E) was 16 ± 2.1 µM, the “Fold increase … to HIV-1 WT” value (HIV-1 K70E; K70E vs WT) was “(11) fold” and the EC50 (HIV-1 K70T; Human immunodeficiency virus 1, MAGIC-5, K70T) was 4.3 ± 0.29 µM. For the same compound, the “Fold increase … to HIV-1 WT” value (HIV-1 K70T; K70T vs WT) was “(3.1) fold”, the EC50 (HIV-1 Q151Mc/K70N; Human immunodeficiency virus 1, MAGIC-5, Q151Mc/K70N) was 15 ± 1.7 µM and the “Fold increase … to HIV-1 Q151Mc” value (HIV-1 Q151Mc/K70N; Q151Mc/K70N vs Q151Mc) was “(0.5) fold”. The EC50 (HIV-1 K70N; Human immunodeficiency virus 1, MAGIC-5, K70N) was 2.2 ± 0.25 µM, the “Fold increase … to HIV-1 WT” value (HIV-1 K70N; K70N vs WT) was “(1.6) fold” and the EC50 (HIV-1 Q151Mc/K70Q; Human immunodeficiency virus 1, MAGIC-5, Q151Mc/K70Q) was 81 ± 0.08 µM. For the same compound, the “Fold increase … to HIV-1 Q151Mc” value (HIV-1 Q151Mc/K70Q; Q151Mc/K70Q vs Q151Mc) was “(2.8) fold”, the EC50 (HIV-1 K70Q) was 4.6 ± 0.53 µM and the EC50 (HIV-1 K70G; Human immunodeficiency virus 1, MAGIC-5, K70G) was 26 ± 0.58 µM. For the same compound, the “Fold increase … to HIV-1 WT” value (HIV-1 K70G; K70G vs WT) was “(19) fold”, the EC50 (HIV-1 Q151Mc/K70R; Human immunodeficiency virus 1, MAGIC-5, Q151Mc/K70R) was 16 ± 1.5 µM and the “Fold increase … to HIV-1 Q151Mc” value (HIV-1 Q151Mc/K70R; Q151Mc/K70R vs Q151Mc) was “(0.6) fold”. It also gave an EC50 (HIV-1 NL4-3 strain (WT); [3]) of 1.4 ± 0.15 µM and an EC50 (HIV-1 WT) of 1.4 ± 0.16 µM.

`Cc1cn([C@H]2C[C@H](N=[N+]=[N-])[C@@H](CO)O2)c(=O)[nH]c1=O` [AZT, zidovudine] gave an EC50 (HIV-1 NL4-3 strain (WT); [4]) of 0.023 ± 0.002 µM.

In the case of `O=C1Nc2ccc(Cl)cc2[C@@](C#CC2CC2)(C(F)(F)F)O1` [EFV, efavirenz], the EC50 (HIV-1 NL4-3 strain (WT); [3]) is reported as 0.002 ± 0.0001 µM, the EC50 [1] is reported as greater than 1 µM and the EC50 [2] is reported as greater than 1 µM.

Work on `Nc1nc(=O)n([C@@H]2CS[C@H](CO)O2)cc1F` [FTC, emtricitabine] yielded an EC50 (HIV-1 NL4-3 strain (WT); [4]) of 0.4 ± 0.03 µM, an EC50 [1] of 2.1 ± 0.17 µM and an EC50 [2] of 3.5 ± 0.12 µM.
